Entries after “also recorded” stand apart in the source; their conditions may differ. Each block holds one compound with its values, some of them ahead of it.
Legend:
physchem = conditions: organic solvent or mixture, thermodynamic from solid
Description: Selected treprostinil derivatives were evaluated for the use in a metered dose inhaler (MDI).
5 mg of each treprostinil compound was added in a glass bottle. Specific amount of ethanol was added by weight. An MDI valve was crimped to each bottle, and HFA propellant added through the valve to the total volume of 5 mL. Compounds were allowed to dissolve for 24 hours at room temperature. The formulations were assessed visually for solubility. The goal was to estimate the minimum ethanol concentration required to solubilize each compound in propellant.
Soluble samples presented as clear and colorless solutions. […] Non-soluble samples had white precipitate or crystals formed. Ethanol was added as a solubility aid.

EP2 prostanoid receptor = molecular target: T1, EP2 prostanoid receptor (Homo sapiens, UniProt P43116); experiment: GloSensor cAMP assay in CHO-K1 cells co-transfected with the EP2 receptor; format: cell-based; conditions: for change of potency with incubation time / release profile: dose response curves at 0.5 to 8 hr incubation
T1 construct: host or cells: CHO-K1 cells, transiently co-transfected with pGloSensor-22F cAMP plasmid and pGEM-3Zf(+)
T1 sequence (P43116 whole entry): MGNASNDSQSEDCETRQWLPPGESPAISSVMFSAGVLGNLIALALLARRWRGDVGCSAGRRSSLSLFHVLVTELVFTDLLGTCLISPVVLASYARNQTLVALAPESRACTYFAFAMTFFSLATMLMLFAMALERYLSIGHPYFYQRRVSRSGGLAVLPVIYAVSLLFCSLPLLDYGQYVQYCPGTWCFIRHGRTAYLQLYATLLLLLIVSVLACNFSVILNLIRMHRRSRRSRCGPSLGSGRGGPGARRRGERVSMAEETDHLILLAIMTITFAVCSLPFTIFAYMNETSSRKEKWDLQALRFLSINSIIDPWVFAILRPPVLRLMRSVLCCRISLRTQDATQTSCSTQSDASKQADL
Description: cAMP is a second messenger involved in signal transduction of G-protein coupled receptors (GPCRs) acting through Ga-s and Ga-i proteins. Because the treprostinil receptor is a GPCR, the assay provides an indication of whether the respective prostacyclin compound (or metabolite thereof) binds its receptor and activates the GPCR cell signaling cascade. The GloSensorTM assay harnesses a genetically modified form of firefly luciferase into which a cAMP-binding protein moiety has been inserted. Upon binding of cAMP, a conformational change is induced leading to increased light output. The EP2 prostanoid receptor was co-transfected with the GloSensorTM plasmid (Promega) into CHG-K1 cells as follows. CHO-K1 cells were harvested when the monoloayer was at 50-90% confluence. First, cells were washed with 5 mL PBS. […] The media was aspirated, and the cell pellet was resuspended in 10 mL of growth media. Cell number was determined using a hemacytometer. Each well of a culture treated 96 […] bottom plate (Costar, Cat #: 3917) was seeded with 1×10^4 cells per 100 μL antibiotic-free growth media. […] For small scale transfections of up to 20 wells, the pGLoSensor-22F cAMP plasmid (Promega, Cat #: E2301) (2 μg): (EP2) (10 ng) (Origene, Cat #: SC126558) : pGEM-3Zf(+) (10 ng) (Promega, Cat #: P2271) ratio was diluted to a final concentration of 12.6 ng/μL (total plasmid) in Opti-MEM I reduced-serum medium (Life Technologies, Cat #: 1985062). Next, 6 μL of FuGENE HD transfection reagent (Promega, Cat #: E2311) was added to 160 μL of diluted plasmid and mixed carefully by gentle pipetting. The complex was incubated at room temperature for 0 to 10 minutes, and then 8 μL of the complex was added per well of a 96 well white assay plate (Costar, Cat #: 3917) and gently mixed without disturbing the cell monolayer. […] Following incubation, cells were treated and analyzed. For larger scale transfections, the aforementioned steps were scaled up accordingly, and cells were frozen following the last incubation. In order to prepare frozen transfected CHO-K1 cells, the media was aspirated from culture flasks and cells were rinsed with 5 mL PBS. […] Cell number was determined using a hemacytometer. The media was aspirated, and the cell pellet was resuspended in freezing media (Millipore, cat #: S-002-5F) at 2.5×10^6 cells/vial. Transfected cells were incubated overnight at -80° C. before transfer to liquid nitrogen for long term storage. […] In preparation for cAMP measurement, the cells were equilibrated with the GloSensor cAMP reagent prior to treatment. For equilibration, the medium was carefully removed from the individual well. Next, 100 μL of equilibration medium (6% v/v of Glosensor Reagent stock solution (Promega, Cat #: E291), 10% FBS (Hyclone, Cat #: SH30071.03) and 88% CO2 independent medium (Life Technologies, Cat #: 18045088)) was added per well of the 96-well plate, and added to the side of each well. The plate was then incubated for 2 hours at room temperature. A first pre-read measurement was taken using a microplate reader (MicroLumat Plus). Plates were incubated for an additional 10 minutes at room temperature, followed by a second pre-read measurement. […] Following treatment, each plate was read every 5 minutes for the duration of the assay using a microplate reader (MicroLumat Plus). In order to determine the fold change in cAMP relative to the control, the transfection efficiency was first determined by dividing the second pre-read measurement by the average of the corresponding pre-read measurements. Next, the normalized relative light units (RLUs) of the samples were determined by dividing the plate read measurement by the transfection efficiency. The fold change in cAMP relative to the control was then determined by dividing the normalized RLU of the samples by the normalized RLU of the control. […] Results from the three highest concentrations are provided at FIG. 3A (10 μM), FIG. 3B (1 μM) and FIG. 3C (0.1 μM). […]

[1] = Particle size characterization of treprostinil compositions (QELS); format: physicochemical; conditions: particles of compositions comprising the alkyl ester (FIG. 2)
Description: All particle size measurements were performed using a Wyatt Technology Mobius™ Zeta Potential/ Particle Sizing Instrument in Quasi-elastic light scattering (QELS) mode. Composition aiiquots were diluted 10-fold in pre-filtered (0.02 μm pore filter) ultrapure of deionized H2O. Light scattering data was collected and converted into particle size and size distribution using Dynamics® v. […] Reported average particle size diameter is based on the cumulants model, which mathematically fits particle diffusion constants (determined by the raw scattering intensities of particles in a suspension) to obtain the particle size mean and a distribution of particle sizes around the mean diameter.
Particle uniformity was determined using the software-calculated polydispersity (% PD). Polydispersity is defined as the standard deviation of the particle size distribution from the mean particle size value. % PD normalizes the polydispersity to the mean diameter by dividing by the mean size and multiplylng by 100. These parameters indicate whether a particle suspension has one or more size populations of particles (monomodal versus multimodal). […]
Dynamics® polydispersity parameter represents a monodisperse population of particles if % PD≦15. A calculated % PD≧57% represents a polydisperse population of particles.

[2] = Treprostinil alkyl ester conversion to treprostinil in rat lung tissue homogenate; format: in vitro ADME; conditions: 37° C., 200 nM, 10 mg/mL of protein, 4 hours
Description: Treprostinil alkyl ester conversion to treprostinil was also measured in the presence of rat, dog and monkey lung tissue homogenate at 37° C. Mere, data were calculated based on fit of exponential increase to the maximum (experiments performed in duplicate). The results of this study are provided below in Table 2A and FIG. 37. […] Both FIG. 37 experiments (left and right graphs) were performed in duplicate and the lines represent nonlinear exponential regression assuming 1 phase decay.

cough reflex = experiment: Cough reflex in guinea pigs exposed to aerosols; format: in vivo, guinea pig
Description: has the following components: Aerosols were generated with an Ultra-Neb Pro nebulizer (nebulizer output 0.36 mL/min.) that was mixed with inspired air delivered at a rate of 2 L/min. […] Coughs were detected by visual observations, plethysmograph recordings and cough sounds.

[3] = Treprostinil pharmacokinetics in anaesthetised, ventilated rats after nebulized dosing; format: in vivo, rat; conditions: nebulized solution
Description: Male Sprague Dawley rats wrere anaesthetised and prepared with endotracheal tube for ventilation. The right femoral vein was cannulated to facilitate blood collections. Terminal lung samples were taken for analysis only 6 hours after dosing. […] Systemic blood pressure (mSAP), heart rate (HR), and arterial oxygen saturation (SaO2). Physiologic parameters were measured during normoxia (fraction of inspired oxygen [FrO2]=0.21, SaO2 ≈90%) and for 2 to 3 hours during hypoxia (FrO2=0.10, SaO2≈50%).

[4] = dog, in vivo
Description: Twelve beagle dogs of either sex were randomly assigned to different inhaled doses of treprostinil in PBS or the compound of Formula (A) wherein R2=
Formulations were nebulized with an Aeroneb nebulizer (MMAD: 2.5-4 μm) delivered into a 500 ml expansion chamber. Formulations were nebulized for 2 min at ventilator settings of 90 ml/breath, 15 breaths/min (delivered volume=2.7 L) and collected on a filter. Drug amount (μg) on the filter was measured by HPLC to calculate the concentration of drug delivered through the ventilator circuit (μg/L).
Dosimetry was performed in propofol-anesthetized dogs in which nebulized drugs were introduced into a mixing chamber interposed on the inspiratory limb of a canine respirator. Technical trials were performed before each experiment to measure the concentration of drug (μg/L) delivered for each breath. The inhaled drug dose (μg/kg) was calculated using the formula: Inhaled Drug Dose (μg/kg)=Drug Cone. (μg/L)×Minute Ventilation (L/min.)×Time (min.)/Body Weight (kg).
Dosimetry was performed in propofol-anesthetized, artificially ventilated dogs in which nebulized drugs were introduced into a mixing chamber interposed on the inspiratory limb of the respirator. Technical trials were performed before each experiment measuring the concentration of drug (μg/L) per breath, minute ventilation and time required to achieve a targeted pulmonary dose. […] Clinical signs (cough, rapid shallow breathing, emesis and pale gums) were also monitored.

[5] = Tolerability and pharmacokinetics in rats after 14 consecutive days of inhaled C16-TR (T748); format: in vivo, rat; conditions: T748, 0.6-18 μg/kg inhaled
Description: Body weights were recorded daily and organ weights (lungs, heart, liver) were measured 24 hr, after the last drug dose.

[6] = rat, in vivo
Description: Nebulized treprostinil (TRE) solution and treprostinil alkyl ester formulations were administered (at 15 nmol/kg, or […] TRE equivalent) to anaesthetised-ventilated rats (6-hour studies) or to conscious rats by nose-only inhalation (24-hour studies). Blood and lung samples were collected at specified time points. TRE and treprostinil alkyl ester concentrations in blood plasma and lung tissue were measured by HPLC/MS/MS analysis.
Male Sprague Dawley rats were placed in restraining tubes and exposed to nebulised drugs via the Jaeger-NYU Nose-Only Directed-Flow Inhalation Exposure System (CH Technologies, Westwood, N.J.) (FIG. 31), Test articles (6 mL at specific concentration) were nebulised using the Aeroneb nebuliser to deliver a predetermined estimated pulmonary dose. Blood and lung tissue samples were taken at selected times after nebulization of the drags over a 24-hour period.

[7] = nebulized concentration of 30 μg/mL

solubility at 24 h (physchem): < 1 mg/mL
solubility at 24 h (physchem; Solubility in HFA-134a with added ethanol): < 1 mg/mL
change of potency with incubation time / release profile (EP2 prostanoid receptor): increases with incubation time
polydispersity (% PD) [1]: around 15 % PD
Rate of treprostinil alkyl ester conversion [2]: 0.4 nmOL/h * g of protein
Compound: CCCCCCCCCCCCCCOC(=O)COc1cccc2c1C[C@H]1C[C@@H](O)[C@H](CC[C@@H](O)CCCCC)[C@H]1C2 [C14-TR, tetradecyl-treprostinil]

exposure concentration consistently evoking cough (cough reflex; guinea pigs, aerosol 10 min.): ≥ 30 µg/mL
cough bouts (cough reflex; [7]): 1-4
guinea pigs with cough (cough reflex; [7]): 7 of 7
total number of coughs (cough reflex; [7]): 36+9 coughs
time by which measurable levels of TRE were not seen in the lungs [3]: < 6 h
time to which measurable levels of TRE were seen in the blood plasma [3]: ≤ 4 h
time for which cAMP level was sustained (EP2 prostanoid receptor; 10 μM, FIG. 3A): not exhibited
Max cAMP level (Fold) (EP2 prostanoid receptor; compositions shown in FIG. 3, 8 hours time course): ~16 Fold
Max cAMP level (Fold) (EP2 prostanoid receptor; compositions shown in FIG. 4, 5 μM, 8 hours time course): ~14 Fold
Max cAMP level (Fold) (EP2 prostanoid receptor; effect of nebulization study (FIG. 6), head prints (5 μM)): ~15 Fold
time by which plasma treprostinil was below the level of quantification ([4]; both, beagle): ≤ 4 h
treprostinil plasma Cmax relative to similar inhaled doses of T623 ([4]; both, beagle): 15-20 fold
period over which plasma levels of treprostinil were sustained [4]: disappeared within a few hours
Compound: CCCCC[C@H](O)CC[C@@H]1[C@H]2Cc3cccc(OCC(=O)O)c3C[C@H]2C[C@H]1O [Treprostinil, (1R,2R,3aS,9aS)-[[2,3,3a,4,9,9a-hexahydro-2-hydroxy-1-[(3S)-3-hydroxyoctyl]-1H-benz[f]inden-5-yl]oxy]acetic acid]
change of potency with incubation time / release profile (EP2 prostanoid receptor): potency decreases with increasing incubation time

Compound: hexadecyl-treprostinil [C16-TR]
tolerability, body weights and organ weights [5]: no tolerability issues or significant changes (relative to PBS) in body weights and organ weights; also recorded: well tolerated
release kinetics of treprostinil over 24 hours [6]: independent of dose
change of potency with incubation time / release profile (EP2 prostanoid receptor): increases with incubation time
ranking of activity of the treprostinil compounds (EP2 prostanoid receptor; unformulated compounds, 10 μM and 5 μM, FIG. 21): C12-TR>C14-TR>5-nonanyl-TR>C16-TR
adverse clinical signs in the dose-response study [4]: adverse clinical signs were seen in only 1 dog

From patent publication US20170049739A1, “PROSTACYCLIN COMPOUNDS, COMPOSITIONS AND METHODS OF USE THEREOF” (INSMED INCORPORATED, priority 2013, published 2017)
